Laboratory results from patent US20150125889A1, “IN VITRO DETECTION OF MICROORGANISMS WITH AZOREDUCTASE ACTIVITY” (BIOMÉRIEUX, priority 2012, published 2015).

Tests used:
Assay in all cases: Reduction of azo substrates over 24 hours at 35° C., microtitration plate (Example 1)
Assay type in all cases: cell-based
Candida albicans = tested on: Candida albicans; parameters: key to RED (substrate reduced or not): RED indicates whether the substrate is reduced (Y) or not (N); RED indicates whether the substrate is reduced (Y) or not (N); key to Co (growth, absorbance at 660 nm) / Decol (substrate decolourized, decrease in absorbance) / Fluo (fluorescence multiplied by 2 relative to substrate-free control): The symbol “+” means good growth/decolourization/significant increase in fluorescence; The symbol “+/−” means difficult growth; The symbol “−” means that there is no growth/decolourization/significant increase in fluorescence; conditions: substrate 35 mg/l
Method: (§1) Reduction of the “azo” function of the substrates listed in Table I by the species listed in Table II, each species being represented by a strain, is tested in a microtitration plate.
(§2) The reaction medium consists of: • Trypcase soya broth • Substrate 35 mg/l • 0.5 MacFarland inoculum
(§3) The reduction of the substrate and the growth of the microorganisms are monitored using an Infinite® M200 Tecan microplate reader at 35° C. over 24 hours.
(§4) The growth is monitored by the absorbance at 660 nm and the reduction of the substrates by absorbance and fluorescence at the specific wavelengths indicated in Table III.
(§5) The substrate is considered as reduced by the microorganisms when the substrate is decolourized (monitored by the decrease in absorbance) (Decol) and/or when the fluorescence of the substrate is multiplied by 2 relative to the base fluorescence of a substrate-free control (Fluo). The growth is indicated by Co. The symbol “+” means good growth/decolourization/significant increase in fluorescence. The symbol “+/−” means difficult growth. The symbol “−” means that there is no growth/decolourization/significant increase in fluorescence. RED indicates whether the substrate is reduced (Y) or not (N).

Cronobacter muytjensii = tested on: Cronobacter muytjensii; parameters: key to RED (substrate reduced or not): RED indicates whether the substrate is reduced (Y) or not (N); RED indicates whether the substrate is reduced (Y) or not (N); key to Co (growth, absorbance at 660 nm) / Decol (substrate decolourized, decrease in absorbance) / Fluo (fluorescence multiplied by 2 relative to substrate-free control): The symbol “+” means good growth/decolourization/significant increase in fluorescence; The symbol “+/−” means difficult growth; The symbol “−” means that there is no growth/decolourization/significant increase in fluorescence; conditions: E. muytjensii, substrate 35 mg/l
Method: as §1, §2, §3, §4, §5

Escherichia coli = tested on: Escherichia coli; parameters: key to RED (substrate reduced or not): RED indicates whether the substrate is reduced (Y) or not (N); RED indicates whether the substrate is reduced (Y) or not (N); key to Co (growth, absorbance at 660 nm) / Decol (substrate decolourized, decrease in absorbance) / Fluo (fluorescence multiplied by 2 relative to substrate-free control): The symbol “+” means good growth/decolourization/significant increase in fluorescence; The symbol “+/−” means difficult growth; The symbol “−” means that there is no growth/decolourization/significant increase in fluorescence; conditions: E. coli, substrate 35 mg/l
Method: as §1, §2, §3, §4, §5

Geotrichum candidum = tested on: Geotrichum candidum; parameters: key to RED (substrate reduced or not): RED indicates whether the substrate is reduced (Y) or not (N); RED indicates whether the substrate is reduced (Y) or not (N); key to Co (growth, absorbance at 660 nm) / Decol (substrate decolourized, decrease in absorbance) / Fluo (fluorescence multiplied by 2 relative to substrate-free control): The symbol “+” means good growth/decolourization/significant increase in fluorescence; The symbol “+/−” means difficult growth; The symbol “−” means that there is no growth/decolourization/significant increase in fluorescence; conditions: G. candidum, substrate 35 mg/l
Method: as §1, §2, §3, §4, §5

Kocuria rosea = tested on: Kocuria rosea; parameters: key to RED (substrate reduced or not): RED indicates whether the substrate is reduced (Y) or not (N); RED indicates whether the substrate is reduced (Y) or not (N); key to Co (growth, absorbance at 660 nm) / Decol (substrate decolourized, decrease in absorbance) / Fluo (fluorescence multiplied by 2 relative to substrate-free control): The symbol “+” means good growth/decolourization/significant increase in fluorescence; The symbol “+/−” means difficult growth; The symbol “−” means that there is no growth/decolourization/significant increase in fluorescence; conditions: K. rosea, substrate 35 mg/l
Method: as §1, §2, §3, §4, §5

Pseudomonas aeruginosa = tested on: Pseudomonas aeruginosa; parameters: key to RED (substrate reduced or not): RED indicates whether the substrate is reduced (Y) or not (N); RED indicates whether the substrate is reduced (Y) or not (N); key to Co (growth, absorbance at 660 nm) / Decol (substrate decolourized, decrease in absorbance) / Fluo (fluorescence multiplied by 2 relative to substrate-free control): The symbol “+” means good growth/decolourization/significant increase in fluorescence; The symbol “+/−” means difficult growth; The symbol “−” means that there is no growth/decolourization/significant increase in fluorescence; conditions: P. aeruginosa, substrate 35 mg/l
Method: as §1, §2, §3, §4, §5

Staphylococcus aureus = tested on: Staphylococcus aureus; parameters: key to RED (substrate reduced or not): RED indicates whether the substrate is reduced (Y) or not (N); RED indicates whether the substrate is reduced (Y) or not (N); key to Co (growth, absorbance at 660 nm) / Decol (substrate decolourized, decrease in absorbance) / Fluo (fluorescence multiplied by 2 relative to substrate-free control): The symbol “+” means good growth/decolourization/significant increase in fluorescence; The symbol “+/−” means difficult growth; The symbol “−” means that there is no growth/decolourization/significant increase in fluorescence; conditions: S. aureus, substrate 35 mg/l
Method: as §1, §2, §3, §4, §5

[1] = tested on: Staphylococcus epidermidis; parameters: key to RED (substrate reduced or not): RED indicates whether the substrate is reduced (Y) or not (N); RED indicates whether the substrate is reduced (Y) or not (N); key to Co (growth, absorbance at 660 nm) / Decol (substrate decolourized, decrease in absorbance) / Fluo (fluorescence multiplied by 2 relative to substrate-free control): The symbol “+” means good growth/decolourization/significant increase in fluorescence; The symbol “+/−” means difficult growth; The symbol “−” means that there is no growth/decolourization/significant increase in fluorescence; conditions: S. epidermidis, substrate 35 mg/l
Method: as §1, §2, §3, §4, §5

Acinetobacter baumanii = tested on: Acinetobacter baumanii; parameters: key to RED (substrate reduced or not): RED indicates whether the substrate is reduced (Y) or not (N); RED indicates whether the substrate is reduced (Y) or not (N); key to Decol (substrate decolourized, decrease in absorbance) / Fluo (fluorescence multiplied by 2 relative to substrate-free control) / Co (growth, absorbance at 660 nm): The symbol “+” means good growth/decolourization/significant increase in fluorescence; The symbol “+/−” means difficult growth; The symbol “−” means that there is no growth/decolourization/significant increase in fluorescence; conditions: A. baumannii, substrate 35 mg/l
Method: as §1, §2, §3, §4, §5

Enterococcus faecalis = tested on: Enterococcus faecalis; parameters: key to RED (substrate reduced or not): RED indicates whether the substrate is reduced (Y) or not (N); RED indicates whether the substrate is reduced (Y) or not (N); key to Decol (substrate decolourized, decrease in absorbance) / Fluo (fluorescence multiplied by 2 relative to substrate-free control) / Co (growth, absorbance at 660 nm): The symbol “+” means good growth/decolourization/significant increase in fluorescence; The symbol “+/−” means difficult growth; The symbol “−” means that there is no growth/decolourization/significant increase in fluorescence; conditions: E. faecalis, substrate 35 mg/l
Method: as §1, §2, §3, §4, §5

SMILES: O=C(O)c1ccccc1/N=N/c1cc(Cl)c(O)c(Cl)c1 [2-(4-Hydroxy-3,5-dichlorophenylazo)benzoic acid]
- Co (growth, absorbance at 660 nm) (Candida albicans): +
- Decol (substrate decolourized, decrease in absorbance) (Candida albicans): −
- Fluo (fluorescence multiplied by 2 relative to substrate-free control) (Candida albicans): −
- RED (substrate reduced or not) (Candida albicans): N
- Co (growth, absorbance at 660 nm) (Cronobacter muytjensii): +
- Decol (substrate decolourized, decrease in absorbance) (Cronobacter muytjensii): +
- Fluo (fluorescence multiplied by 2 relative to substrate-free control) (Cronobacter muytjensii): +
- RED (substrate reduced or not) (Cronobacter muytjensii): Y
- Co (growth, absorbance at 660 nm) (Escherichia coli): +
- Decol (substrate decolourized, decrease in absorbance) (Escherichia coli): +
- Fluo (fluorescence multiplied by 2 relative to substrate-free control) (Escherichia coli): +
- RED (substrate reduced or not) (Escherichia coli): Y
- Co (growth, absorbance at 660 nm) (Geotrichum candidum): +
- Decol (substrate decolourized, decrease in absorbance) (Geotrichum candidum): +
- Fluo (fluorescence multiplied by 2 relative to substrate-free control) (Geotrichum candidum): +
- RED (substrate reduced or not) (Geotrichum candidum): Y
- Co (growth, absorbance at 660 nm) (Kocuria rosea): −
- Decol (substrate decolourized, decrease in absorbance) (Kocuria rosea): −
- Fluo (fluorescence multiplied by 2 relative to substrate-free control) (Kocuria rosea): −
- Co (growth, absorbance at 660 nm) (Pseudomonas aeruginosa): +
- Decol (substrate decolourized, decrease in absorbance) (Pseudomonas aeruginosa): −
- Fluo (fluorescence multiplied by 2 relative to substrate-free control) (Pseudomonas aeruginosa): +
- RED (substrate reduced or not) (Pseudomonas aeruginosa): Y
- Co (growth, absorbance at 660 nm) (Staphylococcus aureus): +
- Decol (substrate decolourized, decrease in absorbance) (Staphylococcus aureus): +
- Fluo (fluorescence multiplied by 2 relative to substrate-free control) (Staphylococcus aureus): +
- RED (substrate reduced or not) (Staphylococcus aureus): Y
- Co (growth, absorbance at 660 nm) [1]: +
- Decol (substrate decolourized, decrease in absorbance) [1]: +
- Fluo (fluorescence multiplied by 2 relative to substrate-free control) [1]: +
- RED (substrate reduced or not) [1]: Y
- Co (growth, absorbance at 660 nm) (Acinetobacter baumanii): +
- Decol (substrate decolourized, decrease in absorbance) (Acinetobacter baumanii): +
- Fluo (fluorescence multiplied by 2 relative to substrate-free control) (Acinetobacter baumanii): +
- RED (substrate reduced or not) (Acinetobacter baumanii): Y
- Co (growth, absorbance at 660 nm) (Enterococcus faecalis): +
- Decol (substrate decolourized, decrease in absorbance) (Enterococcus faecalis): +
- Fluo (fluorescence multiplied by 2 relative to substrate-free control) (Enterococcus faecalis): +
- RED (substrate reduced or not) (Enterococcus faecalis): Y

SMILES: O=S(=O)([O-])c1ccc(/N=N/c2ccc(O)c3ccccc23)cc1.[Na+] [Orange I]
- Co (growth, absorbance at 660 nm) (Candida albicans): +
- Decol (substrate decolourized, decrease in absorbance) (Candida albicans): −
- Fluo (fluorescence multiplied by 2 relative to substrate-free control) (Candida albicans): −
- RED (substrate reduced or not) (Candida albicans): N
- Co (growth, absorbance at 660 nm) (Cronobacter muytjensii): +
- Decol (substrate decolourized, decrease in absorbance) (Cronobacter muytjensii): +
- Fluo (fluorescence multiplied by 2 relative to substrate-free control) (Cronobacter muytjensii): −
- RED (substrate reduced or not) (Cronobacter muytjensii): Y
- Co (growth, absorbance at 660 nm) (Escherichia coli): +
- Decol (substrate decolourized, decrease in absorbance) (Escherichia coli): +
- Fluo (fluorescence multiplied by 2 relative to substrate-free control) (Escherichia coli): −
- RED (substrate reduced or not) (Escherichia coli): Y
- Co (growth, absorbance at 660 nm) (Geotrichum candidum): +/−
- Decol (substrate decolourized, decrease in absorbance) (Geotrichum candidum): −
- Fluo (fluorescence multiplied by 2 relative to substrate-free control) (Geotrichum candidum): −
- RED (substrate reduced or not) (Geotrichum candidum): N
- Co (growth, absorbance at 660 nm) (Kocuria rosea): −
- Decol (substrate decolourized, decrease in absorbance) (Kocuria rosea): −
- Fluo (fluorescence multiplied by 2 relative to substrate-free control) (Kocuria rosea): −
- Co (growth, absorbance at 660 nm) (Pseudomonas aeruginosa): +
- Decol (substrate decolourized, decrease in absorbance) (Pseudomonas aeruginosa): −
- Fluo (fluorescence multiplied by 2 relative to substrate-free control) (Pseudomonas aeruginosa): −
- RED (substrate reduced or not) (Pseudomonas aeruginosa): N
- Co (growth, absorbance at 660 nm) (Staphylococcus aureus): +
- Decol (substrate decolourized, decrease in absorbance) (Staphylococcus aureus): +
- Fluo (fluorescence multiplied by 2 relative to substrate-free control) (Staphylococcus aureus): −
- RED (substrate reduced or not) (Staphylococcus aureus): Y
- Co (growth, absorbance at 660 nm) [1]: +
- Decol (substrate decolourized, decrease in absorbance) [1]: +
- Fluo (fluorescence multiplied by 2 relative to substrate-free control) [1]: −
- RED (substrate reduced or not) [1]: Y
- Co (growth, absorbance at 660 nm) (Acinetobacter baumanii): +
- Decol (substrate decolourized, decrease in absorbance) (Acinetobacter baumanii): +/−
- Fluo (fluorescence multiplied by 2 relative to substrate-free control) (Acinetobacter baumanii): −
- RED (substrate reduced or not) (Acinetobacter baumanii): Y
- Co (growth, absorbance at 660 nm) (Enterococcus faecalis): +
- Decol (substrate decolourized, decrease in absorbance) (Enterococcus faecalis): +
- Fluo (fluorescence multiplied by 2 relative to substrate-free control) (Enterococcus faecalis): −
- RED (substrate reduced or not) (Enterococcus faecalis): Y
